According to the OPERA property sets (Mansouri et al. 2018):

Compound | logP
O=C(O)C1c2ccccc2Cc2ccccc21 | 2.78
COc1cc(Cc2cnc(N)nc2N)cc(OC)c1C(=O)N(C)C | -0.21
O=S1(=O)NC(C2CC3C=CC2C3)=Nc2ccccc21 (stereo unspecified) | 2.06
CC(O)Cn1ccnc1[N+](=O)[O-] (stereo unspecified) | -0.16
CCCC(=O)N(C)SN(C)C(=O)Oc1cccc2c1OC(C)(C)C2 | 3.8
Clc1cc(Cl)c(N=C2NCCN2)c(Cl)c1 | 2.18
CCS(=O)(=O)CCn1ccnc1[N+](=O)[O-] | -0.58
CC(=O)c1cccc(N2C(N)=NC(N)=NC2(C)C)c1 | -0.22
CN(N=Nc1ccc(C(N)=O)cc1)C(C)(C)C | 2.61
CC(=O)C(C#N)=NNc1ccc(Cl)cc1 | 4.1
COC(=O)C(C#N)=NNc1ccc(Cl)cc1C | 4.3
CNC(=NC#N)NC | -0.4
S=C1CCCCCCCN1 | 1.44
CCCCCCC1OC(=O)c2ccccc21 (stereo unspecified) | 3.55
O=C(NCCO)c1cccnc1 | -0.11
CSC(C)=NOC(=O)N(C)SN(C)C(=O)c1cccc(C(F)(F)F)c1 | 2.5
CCOP(=O)(OCC)Oc1c(Cl)cc(SC)cc1Cl | 3.72
CCCCCCCC[n+]1ccccc1.[I-] | -0.84
Brc1n[nH]c(Br)n1 | 2.24
Cc1c([N+](=O)[O-])cc(C(N)=O)cc1[N+](=O)[O-] | 0.68
CC(=O)c1ccccc1OC(=O)N(C)C | 0.93
COc1cc(C)c(Cc2cnc(N)nc2N)cc1OC | 1.23
CCOC(=O)c1c(OCC)cc(Cc2cnc(N)nc2N)cc1OCC | 2.28
Cc1cccc(C)c1N=C1NCCN1 | 1.45
CCN(CC)CCNC(=O)c1cc(F)ccc1OC | 2.62
CC1NC(=Nc2ncc([N+](=O)[O-])s2)OC1(C)C (stereo unspecified) | 1.88

Compound | logP
CC(C)NC(=O)C=Cc1ncc([N+](=O)[O-])s1 | 1.76
CC(=O)N(c1ccccc1)S(C)(=O)=O | 0.29
Cn1nnc2ccccc21 | 1.13
O=S1(=O)NC(C2CCCC2)=Nc2ccccc21 | 1.83
CC(C)(C)CC1=Nc2ccc(Cl)cc2S(=O)(=O)N1 | 2.71
Cc1cc(C)cc(OC2OC(CO)C(O)C(O)C2O)c1 (stereo unspecified) | 0.26
COc1ccc(C2=NCC(=O)N(C)c3ccc(Cl)cc32)cc1 | 3.15
COc1ccccc1C(=O)NN | 0.25
CCCCCc1ccc(O)cc1 | 4.06
COP(=O)(NC(C)(C)C)SC (stereo unspecified) | 0.96
CN(C)C(=O)c1ccoc1 | 0.24
O=[N+]([O-])c1cc(Cl)c(N=C2NCCN2)c(Cl)c1 | 2.1
Nc1ccc(C(=O)Oc2ccc(Cl)cc2Cl)c(O)c1 | 4.27
COc1cccc(Cc2cnc(N)nc2N)c1 | 1.54
COc1cc(Cc2cnc(N)nc2N)cc(OC)c1Cl | 1.87
N#Cc1c(N)sc2ccccc12 | 2.17
CC1=Nc2cc(Br)ccc2S(=O)(=O)N1 | 1.37
CCOC(=O)c1c(OC)cc(Cc2cnc(N)nc2N)cc1OC | 1.25
CC(C)CC1=Nc2cc(Cl)ccc2S(=O)(=O)N1 | 2.35
Nc1cnccn1 | -0.07
O=C1NC(=O)C(=Cc2ccc([N+](=O)[O-])o2)S1 | 0.63
COc1cc(CC(=O)O)ccc1OCC1CCCCC1 | 3.35
CCCCSc1ccccc1OC(=O)NC | 2.98
C=CCN1C(=O)SC(=Cc2ccc([N+](=O)[O-])o2)C1=O | 2.22
CN(C)c1ccc(N=C2C=CC(=O)C=C2)cc1 | 2.02
S=C=Nc1ccc2cc3ccccc3cc2c1 | 5.7

Compound | logP
O=[N+]([O-])c1nccn1C1SC(CO)C(O)C(O)C1O (stereo unspecified) | -0.66
CNP(=O)(OC)Oc1ccc([N+](=O)[O-])cc1 (stereo unspecified) | 1.27
OCC1OC(SCCc2ccccc2)C(O)C(O)C1O (stereo unspecified) | -0.1
COn1c(=O)[nH]c(C)c(Br)c1=O | -0.3
Oc1ccc(C(c2ccc(O)cc2)c2ccccn2)cc1 | 2.84
CCOC(=O)C(=Cc1ccccc1)C(=O)OCC | 3.13
O=S(=O)(Nc1cccc(O)c1)C(F)(F)F | 2.51
O=C(O)COc1cccc(OC(F)(F)F)c1 | 2.48
O=[N+]([O-])c1ccc(C=Cc2nccc(Cl)n2)o1 | 1.31
CNP(=O)(OC)Oc1ccc(Cl)cc1Cl (stereo unspecified) | 2.41
Oc1cc(Cl)c(NC2=NCCN2)c(Cl)c1 | 1.52
CN(C)c1ccc2c(c1)C(=O)OC2(C)C | 2.42
O=C1CN=C(c2ccccc2F)c2cc(Cl)ccc2N1CC(O)CO (stereo unspecified) | 1.51
O=NN(CCF)C(=O)NCCCl | 0.96
O=[N+]([O-])c1cnc(NC2=NCCN2CCO)s1 | 1.23
Nc1nc(N)nc(-c2cc(Cl)ccc2F)n1 | 1.81
COC12C(COC(N)=O)C3=C(C(=O)C(C)=C(N)C3=O)N1CC1C2N1C(=O)OCc1ccccc1 (stereo unspecified) | 1.34
CCN1CCCCCC1=O | 0.65
O=[N+]([O-])c1cccc2c1c([N+](=O)[O-])cc[n+]2[O-] | 0.95
COC(CN1CCCC1)c1ccccc1 (stereo unspecified) | 1.88
NC(=O)CCCCCn1nnc2ccccc21 | 0.79
Cc1ncc([N+](=O)[O-])n1CCCS(C)(=O)=O | -1
CCC(C)(Oc1ccc(Cl)cc1)C(=O)O (stereo unspecified) | 2.9
COc1cc(-n2c(=O)cc(C)n2C)nc(C)n1 | 0.7
